Measured values as given in patent US9486506B2 (Novo Nordisk A/S, priority 2011, dated 2016).
Numbered stars: 1 amine (or outer) side, 2 acyl side, 3 side chain; on linkers, the order of the positions; unused ones are H or OH. Side chains are listed from the residue outwards. Peptide text beside a SMILES is read from it. * marks the point of attachment. C18 diacid = O=C(O)CCCCCCCCCCCCCCCCC(=O)*; C16 diacid = O=C(O)CCCCCCCCCCCCCCC(=O)*; γGlu = O=C(O)[C@H](CCC(=O)[*:2])N[*:1]; AEEA = NCCOCCOCC(=O)O

Assays:
glucagon receptor = molecular target: T1, glucagon receptor (Homo sapiens, UniProt P47871); assay: Assay (I) Glucagon activity (cAMP biosensor, FLIPR); type: cell-based
T1 construct: expressed in transfected cells
T1 sequence (P47871 26-477): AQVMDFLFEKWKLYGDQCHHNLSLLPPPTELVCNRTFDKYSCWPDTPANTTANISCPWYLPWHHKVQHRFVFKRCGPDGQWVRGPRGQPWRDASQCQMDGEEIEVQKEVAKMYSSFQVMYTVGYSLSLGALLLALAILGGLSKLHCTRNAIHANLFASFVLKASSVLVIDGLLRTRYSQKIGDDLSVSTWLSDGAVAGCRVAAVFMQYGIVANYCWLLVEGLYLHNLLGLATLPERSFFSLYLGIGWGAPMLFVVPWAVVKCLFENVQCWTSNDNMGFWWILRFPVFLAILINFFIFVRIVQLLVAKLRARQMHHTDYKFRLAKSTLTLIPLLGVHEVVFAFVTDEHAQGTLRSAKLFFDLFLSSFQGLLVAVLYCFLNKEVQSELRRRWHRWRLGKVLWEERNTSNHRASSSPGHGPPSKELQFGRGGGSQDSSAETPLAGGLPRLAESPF

[1] = Assay (X) Chemical stability assessment by RP-UPLC; type: physicochemical; details: pH 8.15, 14 days at 37° C. vs 5° C., 333 μM

Structure (SMILES)	EC50 (glucagon receptor) [nM]	Chemical stability [Purity loss/14 days 37 C.] [1] [%]
CC(C)C[C@H](NC(=O)[C@H](CC(C)C)NC(=O)[C@H](Cc1c[nH]c2ccccc12)NC(=O)[C@H](CCCCNC(=O)CC[C@H](NC(=O)CC[C@H](NC(=O)COCCOCCNC(=O)COCCOCCNC(=O)CC[C@H](NC(=O)CCCCCCCCCCCCCCCCC(=O)O)C(=O)O)C(=O)O)C(=O)O)NC(=O)[C@@H](NC(=O)[C@H](Cc1ccccc1)NC(=O)[C@H](CC(=O)O)NC(=O)[C@H](CCC(N)=O)NC(=O)[C@H](C)NC(=O)[C@H](CCCNC(=N)N)NC(=O)[C@H](CCCNC(=N)N)NC(=O)[C@H](CC(C)C)NC(=O)[C@H](CC(=O)O)NC(=O)[C@H](CC(C)C)NC(=O)[C@H](Cc1ccc(O)cc1)NC(=O)[C@H](CCCNC(=N)N)NC(=O)[C@H](CO)NC(=O)[C@H](Cc1ccc(O)cc1)NC(=O)[C@H](CC(=O)O)NC(=O)[C@H](CO)NC(=O)[C@@H](NC(=O)[C@H](Cc1ccccc1)NC(=O)[C@@H](NC(=O)CNC(=O)[C@H](CCC(N)=O)NC(=O)[C@H](CO)NC(=O)[C@@H](N)Cc1c[nH]cn1)[C@@H](C)O)[C@@H](C)O)C(C)C)C(=O)NCC(=O)N[C@H](C(=O)O)[C@@H](C)O [Example 88, N^ε24-[(4S)-4-carboxy-4-[[(4S)-4-carboxy-4-[[2-[2-[2-[[2-[2-[2-[[(4S)-4-carboxy-4-(17-carboxyheptadecanoylamino)butanoyl]amino]ethoxy]ethoxy]acetyl]amino]ethoxy]ethoxy]acetyl]amino]butanoyl]amino]butanoyl]-[Arg12,Leu16,Lys24,Leu27,Gly28]-Glucagon] (H-HSQGTFTSDYSRYLDLRRAQDFVK([γGlu-γGlu-AEEA-AEEA-γGlu-C18 diacid])WLLGT-OH)	0.47	4.7
CC(C)C[C@H](NC(=O)[C@H](CC(C)C)NC(=O)[C@H](Cc1c[nH]c2ccccc12)NC(=O)[C@H](CCCCNC(=O)CC[C@H](NC(=O)CC[C@H](NC(=O)COCCOCCNC(=O)COCCOCCNC(=O)CC[C@H](NC(=O)CCCCCCCCCCCCCCC(=O)O)C(=O)O)C(=O)O)C(=O)O)NC(=O)[C@@H](NC(=O)[C@H](Cc1ccccc1)NC(=O)[C@H](CC(=O)O)NC(=O)[C@H](CCC(N)=O)NC(=O)[C@H](C)NC(=O)[C@H](CCCNC(=N)N)NC(=O)[C@H](CCCNC(=N)N)NC(=O)[C@H](CC(C)C)NC(=O)[C@H](CC(=O)O)NC(=O)[C@H](CC(C)C)NC(=O)[C@H](Cc1ccc(O)cc1)NC(=O)[C@H](CCCNC(=N)N)NC(=O)[C@H](CO)NC(=O)[C@H](Cc1ccc(O)cc1)NC(=O)[C@H](CC(=O)O)NC(=O)[C@H](CO)NC(=O)[C@@H](NC(=O)[C@H](Cc1ccccc1)NC(=O)[C@@H](NC(=O)CNC(=O)[C@H](CCC(N)=O)NC(=O)[C@H](CO)NC(=O)[C@@H](N)Cc1c[nH]cn1)[C@@H](C)O)[C@@H](C)O)C(C)C)C(=O)N[C@@H](C)C(=O)N[C@H](C(=O)O)[C@@H](C)O [Example 89, N^ε24-[(4S)-4-carboxy-4-[[(4S)-4-carboxy-4-[[2-[2-[2-[[2-[2-[2-[[(4S)-4-carboxy-4-(15-carboxypentadecanoylamino)butanoyl]amino]ethoxy]ethoxy]acetyl]amino]ethoxy]ethoxy]acetyl]amino]butanoyl]amino]butanoyl]-[Arg12,Leu16,Lys24,Leu27,Ala28]-Glucagon] (H-HSQGTFTSDYSRYLDLRRAQDFVK([γGlu-γGlu-AEEA-AEEA-γGlu-C16 diacid])WLLAT-OH)	0.064	6.8
CC(C)C[C@H](NC(=O)[C@H](CC(C)C)NC(=O)[C@H](Cc1c[nH]c2ccccc12)NC(=O)[C@H](CCCCNC(=O)CC[C@H](NC(=O)CC[C@H](NC(=O)COCCOCCNC(=O)COCCOCCNC(=O)CC[C@H](NC(=O)CCCCCCCCCCCCCCC(=O)O)C(=O)O)C(=O)O)C(=O)O)NC(=O)[C@@H](NC(=O)[C@H](Cc1ccccc1)NC(=O)[C@H](CC(=O)O)NC(=O)[C@H](CCC(N)=O)NC(=O)[C@H](C)NC(=O)[C@H](CCCNC(=N)N)NC(=O)[C@H](CCCNC(=N)N)NC(=O)[C@H](CC(C)C)NC(=O)[C@H](CC(=O)O)NC(=O)[C@H](CC(C)C)NC(=O)[C@H](Cc1ccc(O)cc1)NC(=O)[C@H](CCCNC(=N)N)NC(=O)[C@H](CO)NC(=O)[C@H](Cc1ccc(O)cc1)NC(=O)[C@H](CC(=O)O)NC(=O)[C@H](CO)NC(=O)[C@@H](NC(=O)[C@H](Cc1ccccc1)NC(=O)[C@@H](NC(=O)CNC(=O)[C@H](CCC(N)=O)NC(=O)[C@H](CO)NC(=O)[C@@H](N)Cc1c[nH]cn1)[C@@H](C)O)[C@@H](C)O)C(C)C)C(=O)NCC(=O)N[C@H](C(=O)O)[C@@H](C)O [Example 90, N^ε24-[(4S)-4-carboxy-4-[[(4S)-4-carboxy-4-[[2-[2-[2-[[2-[2-[2-[[(4S)-4-carboxy-4-(15-carboxypentadecanoylamino)butanoyl]amino]ethoxy]ethoxy]acetyl]amino]ethoxy]ethoxy]acetyl]amino]butanoyl]amino]butanoyl]-[Arg12,Leu16,Lys24,Leu27,Gly28]-Glucagon] (H-HSQGTFTSDYSRYLDLRRAQDFVK([γGlu-γGlu-AEEA-AEEA-γGlu-C16 diacid])WLLGT-OH)	0.09	5.4
CC(C)C[C@H](NC(=O)[C@H](Cc1ccc(O)cc1)NC(=O)[C@H](CCCNC(=N)N)NC(=O)[C@H](CO)NC(=O)[C@H](Cc1ccc(O)cc1)NC(=O)[C@H](CC(=O)O)NC(=O)[C@H](CO)NC(=O)[C@@H](NC(=O)[C@H](Cc1ccccc1)NC(=O)[C@@H](NC(=O)CNC(=O)[C@H](CCC(N)=O)NC(=O)[C@H](CO)NC(=O)[C@@H](N)Cc1c[nH]cn1)[C@@H](C)O)[C@@H](C)O)C(=O)N[C@@H](CC(=O)O)C(=O)N[C@@H](C)C(=O)N[C@@H](CCCNC(=N)N)C(=O)N[C@@H](CCCNC(=N)N)C(=O)N[C@@H](C)C(=O)N[C@@H](CCC(N)=O)C(=O)N[C@@H](CC(=O)O)C(=O)N[C@@H](Cc1ccccc1)C(=O)N[C@H](C(=O)N[C@@H](CCCCNC(=O)CC[C@H](NC(=O)CC[C@H](NC(=O)CC[C@H](NC(=O)CCCCCCCCCCCCCCCCC(=O)O)C(=O)O)C(=O)O)C(=O)O)C(=O)N[C@@H](Cc1c[nH]c2ccccc12)C(=O)N[C@@H](CC(C)C)C(=O)N[C@@H](CC(C)C)C(=O)N[C@@H](CO)C(=O)N[C@H](C(=O)O)[C@@H](C)O)C(C)C [Example 92, N^ε24-[(4S)-4-carboxy-4-[[(4S)-4-carboxy-4-[[(4S)-4-carboxy-4-(17-carboxyheptadecanoylamino)butanoyl]amino]butanoyl]amino]butanoyl]-[Arg12,Ala16,Lys24,Leu27,Ser28]-Glucagon] (H-HSQGTFTSDYSRYLDARRAQDFVK([γGlu-γGlu-γGlu-C18 diacid])WLLST-OH)	0.066	6.5
CC(C)C[C@H](NC(=O)[C@H](Cc1ccc(O)cc1)NC(=O)[C@H](CCCCN)NC(=O)[C@H](CO)NC(=O)[C@H](Cc1ccc(O)cc1)NC(=O)[C@H](CC(=O)O)NC(=O)[C@H](CO)NC(=O)[C@@H](NC(=O)[C@H](Cc1ccccc1)NC(=O)[C@@H](NC(=O)CNC(=O)[C@H](CCC(N)=O)NC(=O)[C@H](CO)NC(=O)[C@@H](N)Cc1c[nH]cn1)[C@@H](C)O)[C@@H](C)O)C(=O)N[C@@H](CC(=O)O)C(=O)N[C@@H](CCC(=O)O)C(=O)N[C@@H](CCCNC(=N)N)C(=O)N[C@@H](CCCNC(=N)N)C(=O)N[C@@H](C)C(=O)N[C@@H](CCC(N)=O)C(=O)N[C@@H](CC(=O)O)C(=O)N[C@@H](Cc1ccccc1)C(=O)N[C@H](C(=O)N[C@@H](CCCCNC(=O)CC[C@H](NC(=O)CC[C@H](NC(=O)COCCOCCNC(=O)COCCOCCNC(=O)CC[C@H](NC(=O)CCCCCCCCCCCCCCC(=O)O)C(=O)O)C(=O)O)C(=O)O)C(=O)N[C@@H](Cc1c[nH]c2ccccc12)C(=O)N[C@@H](CC(C)C)C(=O)N[C@@H](CC(C)C)C(=O)N[C@@H](CO)C(=O)N[C@H](C(=O)O)[C@@H](C)O)C(C)C [Example 93, N^ε24-[(4S)-4-carboxy-4-[[(4S)-4-carboxy-4-[[2-[2-[2-[[2-[2-[2-[[(4S)-4-carboxy-4-(15-carboxypentadecanoylamino)butanoyl]amino]ethoxy]ethoxy]acetyl]amino]ethoxy]ethoxy]acetyl]amino]butanoyl]amino]butanoyl]-[Glu16,Lys24,Leu27,Ser28]-Glucagon] (H-HSQGTFTSDYSKYLDERRAQDFVK([γGlu-γGlu-AEEA-AEEA-γGlu-C16 diacid])WLLST-OH; N-terminus and C-terminus assumed)	0.017	14
CC(C)C[C@H](NC(=O)[C@H](Cc1ccc(O)cc1)NC(=O)[C@H](CCCNC(=N)N)NC(=O)[C@H](CO)NC(=O)[C@H](Cc1ccc(O)cc1)NC(=O)[C@H](CC(=O)O)NC(=O)[C@H](CO)NC(=O)[C@@H](NC(=O)[C@H](Cc1ccccc1)NC(=O)[C@@H](NC(=O)CNC(=O)[C@H](CCC(N)=O)NC(=O)[C@H](CO)NC(=O)[C@@H](N)Cc1c[nH]cn1)[C@@H](C)O)[C@@H](C)O)C(=O)N[C@@H](CC(=O)O)C(=O)N[C@@H](CCC(=O)O)C(=O)N[C@@H](CCCNC(=N)N)C(=O)N[C@@H](CCCNC(=N)N)C(=O)N[C@@H](C)C(=O)N[C@@H](CCC(N)=O)C(=O)N[C@@H](CC(=O)O)C(=O)N[C@@H](Cc1ccccc1)C(=O)N[C@H](C(=O)N[C@@H](CCCCNC(=O)CC[C@H](NC(=O)CC[C@H](NC(=O)COCCOCCNC(=O)COCCOCCNC(=O)CC[C@H](NC(=O)CCCCCCCCCCCCCCC(=O)O)C(=O)O)C(=O)O)C(=O)O)C(=O)N[C@@H](Cc1c[nH]c2ccccc12)C(=O)N[C@@H](CC(C)C)C(=O)N[C@@H](CC(C)C)C(=O)N[C@@H](CO)C(=O)N[C@H](C(=O)O)[C@@H](C)O)C(C)C [Example 94, N^ε24-[(4S)-4-carboxy-4-[[(4S)-4-carboxy-4-[[2-[2-[2-[[2-[2-[2-[[(4S)-4-carboxy-4-(15-carboxypentadecanoylamino)butanoyl]amino]ethoxy]ethoxy]acetyl]amino]ethoxy]ethoxy]acetyl]amino]butanoyl]amino]butanoyl]-[Arg12,Glu16,Lys24,Leu27,Ser28]-Glucagon] (H-HSQGTFTSDYSRYLDERRAQDFVK([γGlu-γGlu-AEEA-AEEA-γGlu-C16 diacid])WLLST-OH; N-terminus and C-terminus assumed)	0.029	8.8
